{"source": "patent US20040028714A1", "about": "“Composition having insect repellent characteristics” (priority 2000, published 2004)", "format_in_all_cases": "in vivo", "key": {"[1]": {"test_system": "German cockroaches (Blatella Germanica)", "test": "Cockroach repellency screening on partially treated formica surface (Example 2)", "conditions": "cockroaches, 20 mg/m^2 on formica", "experimental": "The effectiveness of compounds of formula I as an insect repellent was determined using German cockroaches exposed to a formica surface partially treated/partially untreated with a test compound of formula I. The study was conducted in an air conditioned laboratory at a temperature of 22°±2° C. under a normal day/night cycle, using German cockroaches (Blatella Germanica) of mixed sex and age. The study was conducted over a 3 day period and the repellent effectiveness assessed 1, 2 and 3 days after cockroach introduction. A rectangle of formica 40 cm×30 cm was treated at 20 mg/m^2 with a test compound of formula I. This was achieved by soaking a paper wipe (Rag on a Roll ca 20 cm×20 cm) in a solution of the test compound in ethanol, squeezing out the excess liquid and wiping over the surface to give the required coverage. This was checked by weighing the cloth after application. The surface was allowed to dry. A similar rectangle was wiped with ethanol alone (untreated surface). The treated formica rectangle was placed on the bench and a plastic container was placed on the rectangle. This had been treated with fluon to prevent cockroach escape. Two sheets of formica (10 cm×10 cm) were placed on the formica, one on the treated surface and one on the untreated surface. This acted as a cockroach harbourage. The formica sheet to be used in the treated section was treated at the same rate as the treated formica. The formica was placed on two 1 cm high bottle tops to allow cockroaches access under the formica. 20 German cockroaches were added (5 adults and 15 nymphs) to the centre of the formica. No food and water was supplied for these cockroaches. At 1, 2 and 3 days after cockroach introduction the number of cockroaches under each harbourage was counted. After each count the harbourage position was change to avoid the possibility of […] were replaced and new cockroaches were added to replace any dead cockroaches. The above was repeated 3 times to provide a total of 4 replicates."}, "[2]": {"test_system": "German cockroaches (Blatella Germanica)", "test": "Cockroach repellency in tray with half-treated vinyl, compared with DEET and N-methyl-neodecanamide (Example 3)", "conditions": "20 mg/m^2 on vinyl; for Number of Cockroaches present, Treated Section / Number of Cockroaches present, Untreated Section / Number of Cockroaches, Dead: single replicates (n = 50); for Number of Cockroaches present, Treated Section, Total / Number of Cockroaches present, Untreated Section, Total / Number of Cockroaches, Dead, Total: total of 4 replicates (200); for Percentage Dead / Percentage Present, Treated Section / Percentage Present, Untreated Section: cockroaches", "experimental": "The effectiveness of compound 2 (example 1) as an insect repellent was determined using German cockroaches exposed to a formica surface partially treated/partially un-treated, and was directly compared to the repellency of the well known insect repellents DEET (N,N-diethyl-meta-toluamide) and N-methyl-neodecanamide. The study was conducted in an air conditioned laboratory at a temperature of 22°±2° C. under a normal day/night cycle, using German cockroaches (Blatella Germanica) of mixed sex and age. The study was conducted over a 7 days period and the repellent effectiveness was assessed 1, 3, 5 and 7 days after cockroach introduction. Each tray used in the study consisted of a melamine square tray of sides 1.8m×1.8m and 20 cm high walls. The upper part of the wall was provided with electrical strip, which prevented cockroaches escaping. A square of vinyl 90 cm×180 cm was treated with the test compound at 20 mg/m^2. This was achieved by soaking a paper wipe (Rag on a Roll, ca. 20 cm×20 cm) in a solution of the test compound in ethanol, squeezing out the excess liquid and wiping over the surface to give the required coverage. This was checked by weighing the cloth after application. The surface was allowed to dry. The treated vinyl square was placed in one half of the tray. A similar untreated square was placed in the other half of the tray. This square was treated with ethanol alone. Two sheets of formica (30 cm×30 cm) were placed at one corner of each tray, one on the treated surface and one on the untreated surface. This acted as a cockroach harbourage. The formica sheet to be used in the treated section was treated at the same rate as the treated formica. The formica was placed on two 1 cm high bottle tops to allow cockroaches access under the formica. 50 German cockroaches were added (15 adults and 35 nymphs) to the middle of the tray. No food and water was supplied for these cockroaches. At 1, 2, 3 and 7 days after cockroach introduction the number of cockroaches under each harbourage was counted. After each count the harbourage position was change to avoid the possibility of habituation to one location, the harbourages were replaced and new cockroaches were added to replace any dead cockroaches. The above was repeated 3 times to provide a total of 4 replicates."}, "[3]": {"test_system": "Casemaking Clothes Moths (Tinea pellionella)", "test": "Adult clothes moth repellency on treated woolen cloth (Example 5)", "conditions": "fabric soaked in 20 g/L in ethanol, 2 days after moth introduction", "experimental": "The effectiveness of compound 2 (example 1) to reduce the presence of cloth moths on woolen cloth was determined and was directly compared to the repellency of the well known moth repellents Citronellol and Farnesol.\nThe study was conducted in an air conditioned laboratory at a temperature of 22°±2° C. under a normal day/night cycle, using Casemaking Clothes Moths (Tinea pellionella) of mixed sex and age. The study is conducted over a 5 days period and the repellent effectiveness was assessed as follows:\nAdults—2 days after insect introduction\nA 10 cm×10 cm square of black woolen fabric free of bactericide) was soaked in a solution of the candidate repellent in ethanol at 20 g/L, squeezed and allowed to dry. The woollen square was placed in a small box (5 cm×10 cm×10 cm) which was open at one end to allow entry of adult clothes moth.\nA similar square of fabric treated with ethanol (control) was placed in another box of the same size.\nThese two boxes were placed in an aquarium and 50 mixed sex adult moths were added. These were provided with food and water and left for 5 days.\nAt the end of 2 days the number of adult moths in each box was counted.\nThe above was repeated 3 times to provide 4 replicates."}, "[4]": {"conditions": "1 day after cockroach introduction"}, "[5]": {"conditions": "2 days after cockroach introduction"}, "[6]": {"conditions": "3 days after cockroach introduction"}, "[7]": {"conditions": "7 days after cockroach introduction"}, "[8]": {"conditions": "share of moths found in the two boxes"}}, "note": "Several values for one entry are separate records, joined by “and”; a condition that tells them apart may be missing. Equal entries are not always repeated."}
{"smiles": "CCNC(=O)C1CC(C)CCC1C(C)C", "note": "(centres unmarked) [Compound 2, N-ethyl-p-menthane-3-carboxamide]", "values": [{"measurement": "Percentage Dead", "setting": "[1]; 1 day after treatment", "result": 0, "unit": "%"}, {"measurement": "Percentage Present, Treated Section", "setting": "[1]; 1 day after treatment", "result": 17.5, "unit": "%"}, {"measurement": "Percentage Present, Untreated Section", "setting": "[1]; 1 day after treatment", "result": 82.5, "unit": "%"}, {"measurement": "Percentage Dead", "setting": "[1]; 2 days after treatment", "result": 1.2, "unit": "%"}, {"measurement": "Percentage Present, Treated Section", "setting": "[1]; 2 days after treatment", "result": 16.3, "unit": "%"}, {"measurement": "Percentage Present, Untreated Section", "setting": "[1]; 2 days after treatment", "result": 82.5, "unit": "%"}, {"measurement": "Percentage Dead", "setting": "[1]; 3 days after treatment", "result": 2.5, "unit": "%"}, {"measurement": "Percentage Present, Treated Section", "setting": "[1]; 3 days after treatment", "result": 13.8, "unit": "%"}, {"measurement": "Percentage Present, Untreated Section", "setting": "[1]; 3 days after treatment", "result": 83.7, "unit": "%"}, {"measurement": "Percentage Present, Treated Section, Average", "setting": "[1]; average of days 1, 2 and 3", "result": 15.9, "unit": "%"}, {"measurement": "Percentage Present, Untreated Section, Average", "setting": "[1]; average of days 1, 2 and 3", "result": 82.9, "unit": "%"}, {"measurement": "cockroach repellency (in words)", "setting": "[2]; over 7 days", "result": "excellent repellency"}, {"measurement": "Number of Cockroaches present, Treated Section", "setting": "[2]; [4]", "result": "0 (3×) and 3"}, {"measurement": "Number of Cockroaches present, Untreated Section", "setting": "[2]; [4]", "result": "50 (2×) and 49 and 47"}, {"measurement": "Number of Cockroaches, Dead", "setting": "[2]; [4]", "result": "0 (3×) and 1"}, {"measurement": "Number of Cockroaches present, Treated Section, Total", "setting": "[2]; [4]", "result": 3}, {"measurement": "Number of Cockroaches present, Untreated Section, Total", "setting": "[2]; [4]", "result": 196}, {"measurement": "Number of Cockroaches, Dead, Total", "setting": "[2]; [4]", "result": 1}, {"measurement": "Number of Cockroaches present, Treated Section", "setting": "[2]; [5]", "result": "0 (3×) and 1"}, {"measurement": "Number of Cockroaches present, Untreated Section", "setting": "[2]; [5]", "result": "50 (2×) and 49 (2×)"}, {"measurement": "Number of Cockroaches, Dead", "setting": "[2]; [5]", "result": "0 (3×) and 1"}, {"measurement": "Number of Cockroaches present, Treated Section, Total", "setting": "[2]; [5]", "result": 1}, {"measurement": "Number of Cockroaches present, Untreated Section, Total", "setting": "[2]; [5]", "result": 198}, {"measurement": "Number of Cockroaches, Dead, Total", "setting": "[2]; [5]", "result": 1}, {"measurement": "Number of Cockroaches present, Treated Section", "setting": "[2]; [6]", "result": "6 and 3 and 0 (2×)"}, {"measurement": "Number of Cockroaches present, Untreated Section", "setting": "[2]; [6]", "result": "44 and 47 and 50 and 49"}, {"measurement": "Number of Cockroaches, Dead", "setting": "[2]; [6]", "result": "0 (3×) and 1"}, {"measurement": "Number of Cockroaches present, Treated Section, Total", "setting": "[2]; [6]", "result": 9}, {"measurement": "Number of Cockroaches present, Untreated Section, Total", "setting": "[2]; [6]", "result": 190}, {"measurement": "Number of Cockroaches, Dead, Total", "setting": "[2]; [6]", "result": 1}, {"measurement": "Number of Cockroaches present, Treated Section", "setting": "[2]; [7]", "result": "7 and 19 and 3 and 11"}, {"measurement": "Number of Cockroaches present, Untreated Section", "setting": "[2]; [7]", "result": "43 and 30 and 47 and 38"}, {"measurement": "Number of Cockroaches, Dead", "setting": "[2]; [7]", "result": "0 (2×) and 1 (2×)"}, {"measurement": "Number of Cockroaches present, Treated Section, Total", "setting": "[2]; [7]", "result": 40}, {"measurement": "Number of Cockroaches present, Untreated Section, Total", "setting": "[2]; [7]", "result": 158}, {"measurement": "Number of Cockroaches, Dead, Total", "setting": "[2]; [7]", "result": 2}, {"measurement": "Percentage Dead", "setting": "[2]; 1 day after treatment", "result": 0.5, "unit": "%"}, {"measurement": "Percentage Present, Treated Section", "setting": "[2]; 1 day after treatment", "result": 1.5, "unit": "%"}, {"measurement": "Percentage Present, Untreated Section", "setting": "[2]; 1 day after treatment", "result": 98.0, "unit": "%"}, {"measurement": "Percentage Dead", "setting": "[2]; 2 days after treatment", "result": 0.5, "unit": "%"}, {"measurement": "Percentage Present, Treated Section", "setting": "[2]; 2 days after treatment", "result": 0.5, "unit": "%"}, {"measurement": "Percentage Present, Untreated Section", "setting": "[2]; 2 days after treatment", "result": 99.0, "unit": "%"}, {"measurement": "Percentage Dead", "setting": "[2]; 3 days after treatment", "result": 0.5, "unit": "%"}, {"measurement": "Percentage Present, Untreated Section", "setting": "[2]; 3 days after treatment", "result": 95.0, "unit": "%"}, {"measurement": "Percentage Dead", "setting": "[2]; 7 days after treatment", "result": 1.0, "unit": "%"}, {"measurement": "Percentage Present, Treated Section", "setting": "[2]; 7 days after treatment", "result": 20, "unit": "%"}, {"measurement": "Percentage Present, Untreated Section", "setting": "[2]; 7 days after treatment", "result": 79.0, "unit": "%"}, {"measurement": "Moths Present, Treated Section, Total (%)", "setting": "[3]; [8]", "result": "(29.4%)"}, {"measurement": "Moths Present, Untreated Section, Total (%)", "setting": "[3]; [8]", "result": "(70.6%)"}, {"measurement": "The Number of Moths Present, Treated Section", "setting": "[3]; single replicates (n = 50)", "result": "6 and 7 and 11 and 8"}, {"measurement": "The Number of Moths Present, Untreated Section", "setting": "[3]; single replicates (n = 50)", "result": "9 and 19 and 27 and 22"}, {"measurement": "The Number of Moths Present, Treated Section, Total", "setting": "[3]; total of 4 replicates", "result": 32}, {"measurement": "The Number of Moths Present, Untreated Section, Total", "setting": "[3]; total of 4 replicates", "result": 77}]}
